From patent US8044057B2, “Methods for suppressing an immune response or treating a proliferative disorder” (The United States of America as represented by the …, priority 2003, dated 2011)

What was measured:
recombinant CK2 = target: T1, recombinant CK2 (Homo sapiens, UniProt P68400); assay: Casein kinase 2 activity kit, 32P incorporation into substrate peptide; type: biochemical
T1 construct: purchased Upstate Biotechnology 17-132 (number of the activity kit, not of the enzyme)
Experimental: FIGS. 5A-5B are bar graphs showing that LY303511 inhibits the cell cycle by causing combined G1 and G2/M arrest and that LY303511 inhibits CK2 activity. For the data shown in FIG. 5A, PASM cells were cultured in medium with FBS for 48 hours before the addition of 0-100 μM LY303511 without or with raparnycin, 400 ng/ml, for 24 hours. Cells were then harvested and incubated with propidium iodide for 2 hours before counting using a Becton-Dickson FACSCalibur. Data are the means (±SEM) of percentages of cells in G1, S, or G2/M phase of the cell cycle in three experiments with duplicate assays. *p<0.05 vs. DMSO control, or †p<0.05 vs. 10 μM LY303511, by Student's t—test. FIG. 5B is a bar graph showing that LY303511 or LY294002 inhibits CK2 in vitro. As per the manufacturer (Upstate Biotechnologies), 0 or 100 ng of recombinant CK2 were incubated with CK2 substrate peptide and ^32P-γ-ATP for 10 min with 1% DMSO or inhibitors as indicated. Data are the means of values for samples with inhibitors expressed as percentage of that for control, which was (mean±SEM) 0.2±0.03 pmol phosphate/100 ng protein/10 min. Data are from three experiments performed in duplicate. *p<0.05 by Student's t-test when compared to DMSO control.
One specific assay for casein kinase 2 activity is available commercially as a kit from Upstate Biotechnology (New York). The assay is based on phosphorylation of a specific substrate (CK-2 substrate peptide) using the transfer of the gamma-phosphate of ^32P-ATP by casein kinase 2 during a 10 minute incubation at 30° C. The phosphorylated substrate is then separated from the residual ^32P-ATP using P81 phosphocellulose paper, and quantified by scintillation counting.
Casein kinase 2 (CK2) activity (counts per rninute) was measured using a casein kinase 2 activity kit (Upstate Biotechnology catalogue number 17-132) by incubating recombinant 100 ng CK2, magnesium/ATP cocktail (10 mcCi ^32P-garnma-ATP, 0.675 micromoles MgCl2, 4.5 nmoles ATP), and 10 micromoles peptide substrate (arnino acid sequence RRRDDDSDDD (SEQ ID NO: 1) in 50 mcl assay buffer without or with the indicated concentrations of DMSO (1%), LY294002, LY303511, or rapamycin for 10 minutes at 30° C. Assays were stopped with 20 mcl of 40% trichloroacetic acid, and 25 mcl were spotted on P81 phosphocellulose paper squares before washing 3 times with 0.75% phosphoric acid, and once with acetone. 32P incorporation on the substrate peptide was detected by counting the phosphocellulose squares in 5 ml scintillation fluid using a Packard 100 Tri-Carb liquid scintillation counter.
Measurement of casein kinase 2 (CK2) activity: CK2 activity (counts per minute) was measured using a CK2 activity kit (Upstate, Charlottesville, Va.) by incubating 100 ng of recombinant CK2, rnagnesium/ATP cocktail (10 μCi ^32P-gamma-ATP, 0.675 μmol MgCl2, 4.5 nmol ATP), and 10 μmol peptide substrate (amino acid sequence RRRDDDSDDD) in 50 μl assay buffer (20 mM MOPS, pH 7.2, 5 mM EGTA, 25 mM β-glycerol phosphate, 1 mM sodium orthovanadate, 1 mM dithiothreitol) without or with the indicated concentrations of LY294002, LY303511, wortmannin or rapamycin in 1% DMSO for 10 min at 30° C. Assays were stopped with 20 μl of 40% trichloroacetic acid, and samples (25 μl) of supernatant were applied to P81 phosphocellulose paper squares, which were then washed three times with 0.75% phosphoric acid, and once with acetone. ^32P in the substrate peptide was quantified using a Packard 100 Tri-Carb liquid scintillation counter on phosphocellulose squares in 5 ml of scintillation fluid. Activity is expressed as pmol phosphate incorporated per 10 minutes. CK2 activity measured in the presence of inhibitors was divided by that measured for the DMSO control (=100% control).

A549 cells = assay: Microarray gene expression analysis in A549 cells; type: cell-based, human; settings: inhibitor 1 hour before L/I for 6 hours
Experimental: Microarray gene expression analyses have been performed in which A549 cells were incubated without or with LY294002 or wortmannin for 1 hour before the addition of L/I for 6 hours. […] The mRNAs of other kinases that were increased by LY294002 included that encoding CK2α′ (1.8-fold; GenBank accession #M55268). Since CK2 can regulate both G1 and G2/M cell cycle transitions, the effects of LY294002 and LY303511 on CK2 activity were assessed.

T1 sequence (P68400 whole entry): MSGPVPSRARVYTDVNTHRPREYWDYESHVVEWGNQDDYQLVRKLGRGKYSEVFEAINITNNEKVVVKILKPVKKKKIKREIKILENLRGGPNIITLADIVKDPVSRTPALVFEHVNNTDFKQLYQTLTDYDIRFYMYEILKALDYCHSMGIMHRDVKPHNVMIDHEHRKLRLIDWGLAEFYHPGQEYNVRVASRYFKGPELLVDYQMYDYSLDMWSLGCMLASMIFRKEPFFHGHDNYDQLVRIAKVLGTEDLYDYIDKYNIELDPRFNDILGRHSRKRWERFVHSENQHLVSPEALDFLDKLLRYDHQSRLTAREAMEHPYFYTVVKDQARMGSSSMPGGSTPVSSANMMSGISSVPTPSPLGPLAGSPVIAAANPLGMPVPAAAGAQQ
T1 sequence (P67870 2-215 partner limits assumed): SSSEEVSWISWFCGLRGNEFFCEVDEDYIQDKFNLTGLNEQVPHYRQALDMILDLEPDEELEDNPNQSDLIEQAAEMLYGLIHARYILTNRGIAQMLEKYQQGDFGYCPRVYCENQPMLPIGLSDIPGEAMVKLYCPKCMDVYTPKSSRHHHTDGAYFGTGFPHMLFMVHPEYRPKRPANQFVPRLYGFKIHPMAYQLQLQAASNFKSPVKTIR

SMILES: O=c1cc(N2CCOCC2)oc2c(-c3ccccc3)cccc12 [LY294002, 2-(4-morpholinyl)-8-phenyl-4H-1-benzopyran-4-one, reference compound]
- CK2 activity (recombinant CK2; 100 ng recombinant CK2, 10 min at 30° C.): concentration-dependent inhibition of CK2 activity
- CK2 IC50 relative to that for LY303511 (recombinant CK2; recombinant CK2 in vitro): one tenth
- IC50 (recombinant CK2; recombinant CK2 in vitro, read-out: approximate IC50 for CK2): ~10 µM
- levels of mTOR mRNA (A549 cells): 1.7 fold
- mRNA encoding CK2α′ (A549 cells): 1.8 fold
